Read-outs that look alike come from different tables or passages of the source.
How the values were obtained:
[1] = biological target: T1, Arabidopsis HPPD M335H, P336G (Arabidopsis thaliana, UniProt P93836, M335H/P336G); type: biochemical; settings: Arabidopsis HPPD variant M335H, normalized on wild-type
T1 construct: His6 (N); made in house; host or cells: E. coli BL21 (DE3)
Method: (§1) The activity assay for HPPD is based on the analysis of homogentisic acid by reversed phase HPLC.
(§2) The assay mixture can contain 150 mM potassium phosphate buffer pH 7.0, 50 mM L-ascorbic acid, 100 μM Catalase (Sigma-Aldrich), 1 μM FeSO4 and 0.2 units of purified HPPD enzyme in a total volume of 505 μl. 1 unit is defined as the amount of enzyme that is required to produce 1 nmol of HGA per minute at 20° C.
(§3) The reaction is allowed to proceed for 45 min at room temperature. The reaction is stopped by the addition of 50 μl of 4.5 M phosphoric acid. The sample is filtered using a […] pore size PVDF filtration device. 5 μl of the cleared sample is analyzed on an UPLC HSS T3 column (particle size 1.8 μm, dimensions 2, 1×50 mm; Waters) by isocratic elution using 90% 20 mM NaH2PO4 pH 2.2, 10% methanol (v/v).
(§4) HGA is detected electrochemically at 750 mV (mode: DC; polarity: positive) and quantified by integrating peak areas (Empower software; Waters).
(§5) Inhibitors are dissolved in DMSO (dimethylsulfoxide) to a concentration of 0.5 mM. From this stock solution serial five-fold dilutions are prepared in DMSO, which are used in the assay. The respective inhibitor solution accounts for 1% of the assay volume. Thus, final inhibitor concentrations range from 5 μM to 320 pM, respectively. Activities are normalized by setting the uninhibited enzyme activity to 100%. IC50 values are calculated using non-linear regression.
(§6) Purified, mutant HPPD enzymes are obtained by the methods described above. Dose response and kinetic measurements are carried out using the described HPPD activity assay. Apparent michaelis constants (Km) and maximal reaction velocities (Vmax) are calculated by non-linear regression with the software GraphPad Prism 5 (GraphPad Software, La Jolla, USA) using a substrate inhibition model. […] Weighted means (by standard error) of K. and IC50 values are calculated from at least three independent experiments. The Cheng-Prusoff equation for competitive inhibition (Cheng, Y. C.; Prusoff, W. H. Biochem Pharmacol 1973, 22, 3099-3108) is used to calculate dissociation constants (Ki).
(§7) Field performance of the optimized HPPD enzyme, which is used as a herbicide tolerance trait may depend not only on its lack of sensitivity towards HPPD inhibiting herbicides but also on its activity. To assess the potential performance of a herbicide tolerance trait a tolerance index (TI) is calculated using the following formula: […]
(§8) Easy comparison and ranking of each trait is enabled by normalizing tolerance indexes on the respective wild-type HPPD.

[2] = biological target: T2, Arabidopsis HPPD F381L (Arabidopsis thaliana, UniProt P93836, F381L); type: biochemical; settings: Arabidopsis HPPD variant F381L; normalized on wild-type
T2 construct: His6 (N); made in house; host or cells: E. coli BL21 (DE3)
Method: as §1, §2, §3, §4, §5, §6, §7, §8

[3] = biological target: T3, Arabidopsis HPPD M335H, P336G, E363Q (Arabidopsis thaliana, UniProt P93836, E363Q/M335H/P336G); type: biochemical; settings: Arabidopsis HPPD variant M335H, normalized on wild-type
T3 construct: His6 (N); made in house; host or cells: E. coli BL21 (DE3)
Method: as §1, §2, §3, §4, §5, §6, §7, §8

[4] = test system: transgenic Arabidopsis plants (T2) HvHPPD L320H; type: in vivo, Arabidopsis thaliana; settings: for Injury evaluation: Arabidopsis T2 HvHPPD L320H, two weeks after treatment
Text: (§9) For post emergence treatment, the test plants are first grown to a height of 3 to 15 cm, depending on the plant habit, and only then treated with the herbicides. For this purpose, the test plants are either sown directly and grown in the same containers, or they are first grown separately and transplanted into the test containers a few days prior to treatment.
(§10) Herbicide injury scoring is done 2-3 weeks after treatment and is rated on a scale of 0 to 100%, 0% being no injury and 100% being complete death.
(§11) Transgenic Arabidopsis plants were sprayed with a range of doses from 0.78-6.25 g/ha of different HPPD-inhibiting herbicides and injury evaluations were taken two weeks after treatment.

[5] = test system: transgenic Arabidopsis plants (T2) PtHPPD WT (Picrophilus HPPD); experiment: Greenhouse herbicide spray test; type: in vivo, Arabidopsis thaliana; settings: for Injury evaluation: Arabidopsis T2 PtHPPD WT, two weeks after treatment
Text: as §9, §10, §11

[6] = test system: transgenic Arabidopsis plants (T2) HvHPPD L320H, P321A; experiment: Greenhouse herbicide spray test; type: in vivo, Arabidopsis thaliana; settings: two weeks after treatment
Text: as §9, §10, §11

[7] = test system: Arabidopsis plants, transgene none (WT); experiment: Greenhouse herbicide spray test; type: in vivo, Arabidopsis thaliana; settings: two weeks after treatment
Text: as §9, §10, §11

[8] = test system: transgenic Arabidopsis plants (T2) AtHPPD M335H, P336A, E363Q; experiment: Greenhouse herbicide spray test; type: in vivo, Arabidopsis thaliana; settings: two weeks after treatment
Text: as §9, §10, §11

[9] = test system: transgenic Arabidopsis plants (T2) AtHPPD M335Y, P336A, E363Q; experiment: Greenhouse herbicide spray test; type: in vivo, Arabidopsis thaliana; settings: two weeks after treatment
Text: as §9, §10, §11

[10] = test system: transgenic Arabidopsis plants (T2) AtHPPD F381I; experiment: Greenhouse herbicide spray test; type: in vivo, Arabidopsis thaliana; settings: two weeks after treatment
Text: as §9, §10, §11

[11] = Table 18, no transgene, 0.78 g/ha
[12] = Table 18, no transgene, 1.56 g/ha
[13] = Table 18, no transgene, 3.125 g/ha
[14] = Table 18, no transgene, 6.25 g/ha
[15] = Table 19, no transgene, 0.78 g/ha
[16] = Table 19, no transgene, 1.56 g/ha
[17] = Table 19, no transgene, 3.125 g/ha
[18] = Table 19, no transgene, 6.25 g/ha

T2 sequence (P93836 whole entry F381L): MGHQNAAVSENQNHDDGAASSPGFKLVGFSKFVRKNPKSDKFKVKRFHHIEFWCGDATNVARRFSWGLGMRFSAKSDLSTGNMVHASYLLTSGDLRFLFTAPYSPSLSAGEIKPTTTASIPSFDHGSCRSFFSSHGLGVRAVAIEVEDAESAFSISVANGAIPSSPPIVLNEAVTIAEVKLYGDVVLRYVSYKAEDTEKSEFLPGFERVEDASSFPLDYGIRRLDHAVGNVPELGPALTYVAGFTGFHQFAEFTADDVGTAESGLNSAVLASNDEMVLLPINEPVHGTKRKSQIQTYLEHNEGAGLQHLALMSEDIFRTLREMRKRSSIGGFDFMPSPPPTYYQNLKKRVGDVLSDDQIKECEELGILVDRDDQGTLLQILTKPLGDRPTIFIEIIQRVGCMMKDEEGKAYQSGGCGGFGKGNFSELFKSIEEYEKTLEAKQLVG
T1 sequence (P93836 whole entry M335H/P336G): as the sequence (P93836 whole entry F381L) above, with M335H, P336G, L381F counted along it
T3 sequence (P93836 whole entry M335H/P336G/E363Q): as the sequence (P93836 whole entry F381L) above, with M335H, P336G, E363Q, L381F counted along it

| SMILES | Normalized tolerance index (TI) [1] | Normalized tolerance index (TI) [2] | Normalized tolerance index (TI) [3] | Injury evaluation ([4]; 0.78 g/ha) [%] | Injury evaluation ([4]; 1.56 g/ha) [%] | Injury evaluation ([4]; 3.125 g/ha) [%] | Injury evaluation ([4]; 6.25 g/ha) [%] | Injury evaluation ([5]; 0.78 g/ha) [%] | Injury evaluation ([5]; 1.56 g/ha) [%] | Injury evaluation ([5]; 3.125 g/ha) [%] | Injury evaluation ([5]; 6.25 g/ha) [%] | Injury evaluation ([6]; 0.78 g/ha) [%] | Injury evaluation ([6]; 1.56 g/ha) [%] | Injury evaluation ([6]; 3.125 g/ha) [%] | Injury evaluation ([6]; 6.25 g/ha) [%] | Injury evaluation [7, 11] [%] | Injury evaluation [7, 12] [%] | Injury evaluation [7, 13] [%] | Injury evaluation [7, 14] [%] | Injury evaluation [7, 15] [%] | other results |
| --- | --- | --- | --- | --- | --- | --- | --- | --- | --- | --- | --- | --- | --- | --- | --- | --- | --- | --- | --- | --- | --- |
| CS(=O)(=O)c1ccc(C(=O)C2C(=O)CCCC2=O)c(Cl)c1COCC(F)(F)F [Inhibitor 4, 2-[2-chloro-4-methylsulfonyl-3-(2,2,2-trifluoroethoxymethyl)benzoyl]cyclohexane-1,3-dione] | 0.2 | 0.1 | 0.1 | – | – | – | – | – | – | – | – | – | – | – | – | – | – | – | – | – | – |
| COCCOCc1nc(C(F)(F)F)ccc1C(=O)C1=C(O)C2CCC(C2)C1=O (stereo not shown) [Inhibitor 3, 2-hydroxy-3-[2-(2-methoxyethoxymethyl)-6-(trifluoromethyl)pyridine-3-carbonyl]bicyclo[3.2.1]oct-2-en-4-one] | 0.3 | 0.1 | 0.1 | – | – | – | – | – | – | – | – | – | – | – | – | – | – | – | – | – | – |
| CS(=O)(=O)c1ccc(C(=O)C2C(=O)CCCC2=O)c([N+](=O)[O-])c1 [Inhibitor 2, 2-(4-methylsulfonyl-2-nitro-benzoyl)cyclohexane-1,3-dione] | 0.1 | 0.1 | 0.1 | 0 | 0 | 0 | 0 | 0 | 0 | 3 | 0 | 0 | 0 | 0 | 0 | 78 | 95 | 100 | 99 | 93 | resistance (in words) ([4]; Arabidopsis HvHPPD L320H, 0.78-6.25 g/ha): resistant; leaf damage (in words) ([5]; Arabidopsis overexpressing Picrophilus HPPD (SEQ-ID:40), tested application rates 0.78-6.25 g/ha): no leaf damages could be observed; Injury evaluation [7, 16]: 99%; Injury evaluation [7, 17]: 100%; Injury evaluation [7, 18]: 100%; Injury evaluation ([8]; 0.78 g/ha): 3%; Injury evaluation ([8]; 1.56 g/ha): 0%; Injury evaluation ([8]; 3.125 g/ha): 13%; Injury evaluation ([8]; 6.25 g/ha): 12%; Injury evaluation ([9]; 0.78 g/ha): 5%; Injury evaluation ([9]; 1.56 g/ha): 12%; Injury evaluation ([9]; 3.125 g/ha): 21%; Injury evaluation ([9]; 6.25 g/ha): 38%; Injury evaluation ([10]; 1.56 g/ha): 20%; Injury evaluation ([10]; 3.125 g/ha): 25%; Injury evaluation ([10]; 6.25 g/ha): 78% |
| Cc1c(C(=O)c2cnn(C)c2O)ccc(S(C)(=O)=O)c1C1=NOCC1 [Inhibitor 1, [3-(4,5-dihydroisoxazol-3-yl)-2-methyl-4-methylsulfonyl-phenyl]-(5-hydroxy-1-methyl-pyrazol-4-yl)methanone] | 5 | 11 | 3 | 13 | 57 | 68 | 94 | 13 | 17 | 62 | 99 | 0 | 0 | 0 | 0 | 89 | 99 | 99 | 100 | 85 | fold increased tolerance ([4]; Arabidopsis HvHPPD L320H, lowest concentration tested): 6.5 fold; fold less susceptible compared to the control ([5]; Arabidopsis expressing Picrophilus HPPD, dose of 3,125 g/ha): 1.6 fold; fold tolerance compared to the control ([5]; Arabidopsis expressing Picrophilus HPPD, two lowest application rates): 6.8 fold; Injury evaluation [7, 16]: 88%; Injury evaluation [7, 17]: 96%; Injury evaluation [7, 18]: 99%; Injury evaluation ([8]; 0.78 g/ha): 0%; Injury evaluation ([8]; 1.56 g/ha): 10%; Injury evaluation ([8]; 3.125 g/ha): 15%; Injury evaluation ([8]; 6.25 g/ha): 15%; Injury evaluation ([9]; 0.78 g/ha): 12%; Injury evaluation ([9]; 1.56 g/ha): 21%; Injury evaluation ([9]; 3.125 g/ha): 42%; Injury evaluation ([9]; 6.25 g/ha): 68%; Injury evaluation ([10]; 1.56 g/ha): 43%; Injury evaluation ([10]; 3.125 g/ha): 55%; Injury evaluation ([10]; 6.25 g/ha): 70% |

Reference: patent US12065654B2, “Plants having increased tolerance to herbicides” (BASF SE, priority 2014, dated 2024)
